Results on twelve compounds are retold here after patent US5348956A, “Substituted cyclopropylamino-1,3,5-triazines” (UCB S.A., priority 1991, dated 1994).

Experiment [1] is described as follows: multiple-trial passive avoidance: learning. Type of experiment: in vivo, male Sprague-Dawley rats. The procedure:
To evaluate whether a compound can promote learning, the following test is carried out. […] Rats which remain on the mat for this period have acquired the avoidance reflex and are replaced in their original cage without receiving the electric shock. […] The results obtained in the test used to evaluate learning are given in columns 3 and 4. […] The results were analyzed by the Student test.

Experiment [2] has as its system serotonergic activity. Kind of experiment: "wet dog shake" (WDS) behavior, serotonergic activity. Type of experiment: in vivo, male Sprague-Dawley rats. As to conditions: counted over 30 minutes. The procedure: A decrease in serotonergic activity has been correlated with the occurrence of affective disorders, such as depression and anxiety. […] The test is carried out in the morning on male Sprague-Dawley rats (±180 g), divided the previous day into groups of 8 animals in residence cages. The cage used for the tests is a transparent enclosure of 12×24×30 cm in height, the floor of which is covered with a layer of sand. The compounds to be tested, dissolved either in physiological salt solution or in a citrate buffer of pH 5, are administered intraperitoneally in a different dose for each group treated. The control groups receive an intraperitoneal injection of the same vehicle (either physiological salt solution or citrate buffer). […] The mean values of the results are calculated and analyzed statistically by the Mann-Whitney method. The mean values of the number of shakes obtained for the compounds according to the invention administered intraperitoneally at the doses indicated (in mg/kg) are given in Table V below.

In experiment [3] the test system is plantar edema induced by immune complexes. The experiment is described as follows: "reverse passive Arthus" (RPA) test, anti-inflammatory and anti-edema activity. The format is in vivo, Sprague-Dawley rat. The settings on record: Rattus norvegicus, intravenous. In short, it runs like this:
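Rats received subplantar anti-ovalbumin serum in the right hind paw plus i.v. ovalbumin 1 ml/kg (25 mg/ml). Compound was given i.v. 30 s before induction, at ≥3 doses, 6 rats/dose. Paw volume was measured by plethysmometry at 3 and 5 h, and ID30 (μmole/kg) is the dose reducing edema 30% versus controls.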

Experiment [4] relates to cAMP in PMN granulocytes. Kind of experiment: increase in the level of cAMP in PMN granulocytes. The format is cell-based, Rat. The settings on record: […]10^-6 mole per liter; PGE1 10^-6 mole/liter; control 4.3. An excerpt: Polymorphonuclear neutrophil granulocytes (PMN) are cells which are mobilized during inflammatory phenomena and which can be stimulated by various compounds, such as, for example, formylmethionyl-leucylphenylalanine (FMLP) or prostaglandins E (PGE1). The PMN granulocytes respond to these extracellular stimuli with an activation of the oxygen metabolism with release of toxic oxygenated metabolites. An excessive response of the PMN granulocytes may be the cause of a painful inflammation and is also accompanied by a reduction in the level of cyclic adenosine monophosphate (cAMP) in these granulocytes. […] The reaction is then stopped by addition of 1 ml of propanol. After centrifugation at 15,000 g for 3 minutes, the supernatant is recovered and evaporated and the amount of cAMP in the residue is determined by radioimmunological assay according to the process recommended by the supplier of the reagent used for this purpose (Amersham). A control test is carried out under the same conditions, but in the absence of the compound to be tested.

Where [5] appears, read: 3 hours after induction of the Arthus reaction, read-out: Dose (ID30), 3 hours.
Where [6] appears, read: 5 hours after induction of the Arthus reaction, read-out: Dose (ID30), 5 hours.

Where two headings read alike, the source gives them in different places.

As to `OCCN(CCO)c1nc(NC2CC2)nc(C2CC2)n1` [Compound 7], the “Learning, average number of trials, group 2” value (shortened to “Learning, average number”) in experiment [1] (2.8 mg/kg i.p.) is listed as 1.9 trials. Further, the “Average number of shakes” value in experiment [2] (2.8 mg/kg i.p.) is given as 7.9 ± 1.8 shakes. Also, the ED30 in experiment [3] (setting [5]) worked out at 7.7 µmol/kg; in experiment [3] (setting [6]) it was 11 µmol/kg. The “Amount of cAMP produced” value in experiment [4] is listed as 15.8 picomoles per 10^7 cells.
As to `COC1CN(c2nc(NC3CC3)nc(C3CC3)n2)C1` [Compound 14], the “Learning, average number” value in experiment [1] (2.6 mg/kg i.p.) is listed as 1.5 trials. Further, the “Average number of shakes” value in experiment [2] (0.8 mg/kg i.p.) came to 2.1 ± 0.7 shakes. Moreover, the ED30 amounted to 16 µmol/kg in experiment [3] (setting [5]) and 12 µmol/kg in experiment [3] (setting [6]).
As for `CCCc1nc(NC2CC2)nc(N(CCO)CCO)n1` [Compound 6], in experiment [2] (1.0 mg/kg i.p.), the “Average number of shakes” value is 1.9 ± 0.5 shakes. Besides, the ED30 in experiment [3] (setting [5]) was 12 µmol/kg; in experiment [3] (setting [6]), 9 µmol/kg. Moreover, in experiment [4], the “Amount of cAMP produced” value is 14.6 picomoles per 10^7 cells.
Consider `CCCc1nc(NC2CC2)nc(N2CC3CCC(C2)O3)n1` [Compound 11], for which the “Learning, average number” value in experiment [1] (3.3 mg/kg i.p.) is listed as 1.8 trials. Further, in experiment [2] (1.1 mg/kg i.p.), the “Average number of shakes” value is 4.3 ± 1.4 shakes. The ED30 in experiment [3] (setting [5]) turned out to be 0.5 µmol/kg; in experiment [3] (setting [6]) it was 0.4 µmol/kg. Moreover, in experiment [4], the “Amount of cAMP produced” value is 16.2 picomoles per 10^7 cells.
Regarding `C1CN(c2nc(NC3CC3)nc(C3CC3)n2)CCO1.Cl` [Compound 3, 2-cyclopropyl-4-cyclopropylamino-6-morpholino-1,3,5-triazine hydrochloride], the “Learning, average number” value in experiment [1] (1.0 mg/kg i.p.) is given as 1.9 trials. Besides, the “Average number of shakes” value in experiment [2] (0.3 mg/kg i.p.) came to 5.1 ± 1.0 shakes; in experiment [2] (1.0 mg/kg i.p.) it was 11.9 ± 2.7 shakes. The ED30 was determined as 0.8 µmol/kg in experiment [3] (setting [5]) and 0.4 µmol/kg in experiment [3] (setting [6]). Besides, the “Amount of cAMP produced” value in experiment [4] is 23.2 picomoles per 10^7 cells.
On to `CCCc1nc(NC2CC2)nc(N2CCC(O)CC2)n1` [Compound 5], for which the “Learning, average number” value in experiment [1] (2.8 mg/kg i.p.) is given as 2.3 trials. Besides, the “Average number of shakes” value in experiment [2] (2.8 mg/kg i.p.) was 8.4 ± 1.6 shakes. Moreover, the ED30 in experiment [3] (setting [5]) stood at 3.1 µmol/kg; in experiment [3] (setting [6]) it was 27 µmol/kg. For the same compound, in experiment [4], the “Amount of cAMP produced” value is on record as 11.6 picomoles per 10^7 cells.
Take `CC(C)c1nc(NC2CC2)nc(N2CC3CCC(C2)O3)n1` [Compound 12]: the “Learning, average number” value in experiment [1] (1.0 mg/kg i.p.) is on record as 1.7 trials. For the same compound, the ED30 in experiment [3] (setting [5]) is 2.5 µmol/kg; in experiment [3] (setting [6]) it was 3 µmol/kg. Further, in experiment [4], the “Amount of cAMP produced” value is on record as 16.8 picomoles per 10^7 cells.
On to `C1CC1Nc1nc(C2CC2)nc(N2CC3CCC(C2)O3)n1` [Compound 16], for which the “Learning, average number” value in experiment [1] (3.25 mg/kg i.p.) is recorded as 2.2 trials. For the same compound, the “Average number of shakes” value in experiment [2] (1.0 mg/kg i.p.) was found to be 10.6 ± 1.8 shakes. In addition, the ED30 in experiment [3] (setting [5]) worked out at 1.5 µmol/kg; in experiment [3] (setting [6]), 2 µmol/kg.
In the case of `C1CC(c2nc(NC3CC3)nc(N3CCOCC3)n2)C1` [Compound 4, 2-cyclobutyl-4-cyclopropylamino-6-morpholino-1,3,5-triazine], the “Learning, average number” value in experiment [1] (2.8 mg/kg i.p.) was 1.9 trials. In addition, in experiment [2] (2.8 mg/kg i.p.), the “Average number of shakes” value amounted to 10.6 ± 4.3 shakes. The ED30 was 9 µmol/kg in experiment [3] (setting [5]) and 10 µmol/kg in experiment [3] (setting [6]). Also, the “Amount of cAMP produced” value in experiment [4] came to 17.7 picomoles per 10^7 cells.
For the compound `OC1CN(c2nc(NC3CC3)nc(C3CC3)n2)C1` [Compound 13], the “Learning, average number” value in experiment [1] (2.5 mg/kg i.p.) is given as 2.1 trials. Further, in experiment [2] (2.5 mg/kg i.p.), the “Average number of shakes” value was 5.6 ± 1.8 shakes. For the same compound, the values for the ED30 in experiment [3] (setting [5]) and in experiment [3] (setting [6]) were 9 µmol/kg and 4 µmol/kg, respectively.
With `CCCc1nc(NC2CC2)nc(N2CCOCC2)n1` [Compound 1, 2-Cyclopropylamino-4-morpholino-6-n-propyl-1,3,5-triazine], in experiment [1] (3.0 mg/kg i.p.), the “Learning, average number” value amounted to 1.4 trials. For the same compound, in experiment [2] (1.0 mg/kg i.p.), the “Average number of shakes” value worked out at 7.8 ± 1.6 shakes. In addition, the ED30 in experiment [3] (setting [5]) and in experiment [3] (setting [6]) was 2 µmol/kg each time. In experiment [4], the “Amount of cAMP produced” value came to 21.0 picomoles per 10^7 cells.
In the case of `CCc1nc(NC2CC2)nc(N2CCOCC2)n1` [Compound 2], in experiment [1] (1.0 mg/kg i.p.), the “Learning, average number” value is recorded as 2.7 trials. In addition, the “Average number of shakes” value in experiment [2] (1.0 mg/kg i.p.) is 10.0 ± 3.5 shakes. Moreover, the ED30 is 2.3 µmol/kg in experiment [3] (setting [5]) and 0.7 µmol/kg in experiment [3] (setting [6]).
